From US12421252B2, “Spiro (isobenzofuranazetidine) compounds for the treatment of autoimmune disease” (Hoffmann-La Roche Inc., priority 2020, dated 2025)
pIC50: −log10 of the molar value.

These molecules were tested against T1, human TLR7 (Homo sapiens, UniProt Q9NYK1) (assay: HEK293-Blue-hTLR-7 cells assay). Conditions: HEK293-Blue-hTLR7 cells, R848 stimulation, 20 hrs, SEAP reporter; read-out: HEK/hTLR7 IC50.
T1 sequence (Q9NYK1 27-1049): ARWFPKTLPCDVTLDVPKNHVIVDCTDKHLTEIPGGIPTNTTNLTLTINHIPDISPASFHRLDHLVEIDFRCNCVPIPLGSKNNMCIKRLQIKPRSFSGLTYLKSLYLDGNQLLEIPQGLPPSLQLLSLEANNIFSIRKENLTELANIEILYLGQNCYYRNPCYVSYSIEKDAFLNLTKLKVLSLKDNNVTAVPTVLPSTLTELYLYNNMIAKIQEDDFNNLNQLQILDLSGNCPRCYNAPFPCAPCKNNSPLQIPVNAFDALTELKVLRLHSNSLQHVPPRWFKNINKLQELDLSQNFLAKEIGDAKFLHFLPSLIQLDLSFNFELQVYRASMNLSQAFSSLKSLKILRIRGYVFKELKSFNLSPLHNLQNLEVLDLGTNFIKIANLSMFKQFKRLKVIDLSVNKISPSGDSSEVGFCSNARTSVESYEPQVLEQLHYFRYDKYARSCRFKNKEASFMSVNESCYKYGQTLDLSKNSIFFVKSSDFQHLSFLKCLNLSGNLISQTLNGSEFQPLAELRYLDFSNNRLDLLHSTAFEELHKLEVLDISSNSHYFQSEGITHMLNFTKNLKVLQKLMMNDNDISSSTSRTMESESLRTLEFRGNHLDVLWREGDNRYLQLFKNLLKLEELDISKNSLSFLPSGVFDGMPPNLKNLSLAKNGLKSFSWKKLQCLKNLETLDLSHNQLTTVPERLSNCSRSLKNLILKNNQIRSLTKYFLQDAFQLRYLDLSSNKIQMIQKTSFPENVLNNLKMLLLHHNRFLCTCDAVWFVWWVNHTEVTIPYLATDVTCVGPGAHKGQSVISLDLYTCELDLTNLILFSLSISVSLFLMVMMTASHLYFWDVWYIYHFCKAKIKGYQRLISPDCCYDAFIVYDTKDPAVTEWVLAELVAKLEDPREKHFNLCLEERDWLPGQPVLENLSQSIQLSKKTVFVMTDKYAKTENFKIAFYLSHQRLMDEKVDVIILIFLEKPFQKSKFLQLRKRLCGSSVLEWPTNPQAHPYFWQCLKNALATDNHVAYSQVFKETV
Format: cell-based
Source text: HEK293-Blue-hTLR-7 cells assay:
A stable HEK293-Blue-hTLR-7 cell line was purchased from InvivoGen (Cat. #: hkb-htlr7, San Diego, California, USA). These cells were originally designed for studying the stimulation of human TLR7 by monitoring the activation of NF-κB. A SEAP (secreted embryonic alkaline phosphatase) reporter gene was placed under the control of the IFN-β minimal promoter fused to five NF-κB and AP-1-binding sites. The SEAP was induced by activating NF-κB and AP-1 via stimulating HEK-Blue hTLR7 cells with TLR7 ligands. Therefore the reporter expression was declined by TLR7 antagonist under the stimulation of a ligand, such as R848 (Resiquimod), for incubation of 20 hrs. The cell culture supernatant SEAP reporter activity was determined using QUANTI-Blue™ kit (Cat. #: rep-qb1, Invivogen, San Diego, Ca, USA) at a wavelength of 640 nm, a detection medium that turns purple or blue in the presence of alkaline phosphatase.
HEK293-Blue-hTLR7 cells were incubated at a density of 250,000˜450,000 cells/mL in a volume of 170 μL in a 96-well plate in Dulbecco's Modified Eagle's medium (DMEM) containing 4.5 g/L glucose, 50 U/mL penicillin, […], […], 2 mM L-glutamine, 10% (v/v) heat-inactivated fetal bovine serum with addition of 20 μL test compound in a serial dilution in the presence of final DMSO at 1% and 10 μL of 20 uM R848 in above DMEM, perform incubation under 37° C. in a CO2 incubator for 20 hrs. Then 20 μL of the supernatant from each well was incubated with 180 μL Quanti-blue substrate solution at 37° C. for 2 hrs and the absorbance was read at 620˜655 nm using a spectrophotometer. The signaling pathway that TLR7 activation leads to downstream NF-κB activation has been widely accepted, and therefore similar reporter assay was modified for evaluating TLR7 antagonist.

Row | Structure (SMILES) | pIC50
1 | C[C@@H]1CN(c2ccc(C#N)n3ncc(F)c23)C[C@H](CN2CC3(C2)OCc2cc(N4CC(C)(N)C4)ccc23)O1 [Example 1, 4-[(2S,6R)-2-[[6-(3-amino-3-methyl-azetidin-1-yl)spiro[1H-isobenzofuran-3,3′-azetidine]-1′-yl]methyl]-6-methyl-morpholin-4-yl]-3-fluoro-pyrazolo[1,5-a]pyridine-7-carbonitrile] | 7.92
2 | C[C@@H]1CN(c2ccc(C#N)n3ncc(F)c23)C[C@H](CN2CC3(C2)OCc2cc(N[C@H]4CNC[C@H]4F)ccc23)O1 [Example 3, 3-fluoro-4-[(2S,6R)-2-[[6-[[(3S,4R)-4-fluoropyrrolidin-3-yl]amino]spiro[1H-isobenzofuran-3,3′-azetidine]-1′-yl]methyl]-6-methyl-morpholin-4-yl]pyrazolo[1,5-a]pyridine-7-carbonitrile] | 7.70
3 | C[C@@H]1CN(c2ccc(C#N)n3ncc(F)c23)C[C@H](CN2CC3(C2)OCc2cc(N4CC5(CNCCO5)C4)ccc23)O1 [Example 4, 3-fluoro-4-[(2R,6S)-2-methyl-6-[[6-(5-oxa-2,8-diazaspiro[3.5]nonan-2-yl)spiro[1H-isobenzofuran-3,3′-azetidine]-1′-yl]methyl]morpholin-4-yl]pyrazolo[1,5-a]pyridine-7-carbonitrile] | 7.80
4 | C[C@@H]1CN(c2ccc(C#N)n3ncc(F)c23)C[C@H](CN2CC3(C2)OCc2cc(N4CC[C@](C)(N)C4)ccc23)O1 [Example 5, 4-[(2S,6R)-2-[[6-[(3S)-3-amino-3-methyl-pyrrolidin-1-yl]spiro[1H-isobenzofuran-3,3′-azetidine]-1′-yl]methyl]-6-methyl-morpholin-4-yl]-3-fluoro-pyrazolo[1,5-a]pyridine-7-carbonitrile] | 7.72
5 | C[C@@H]1CN(c2cc(=O)n(C)c3ncccc23)C[C@H](CN2CC3(C2)OCc2cc(N4CC(N)C4)ccc23)O1 [Example 13, 4-[(2S,6R)-2-[[6-(3-aminoazetidin-1-yl)spiro[1H-isobenzofuran-3,3′-azetidine]-1′-yl]methyl]-6-methyl-morpholin-4-yl]-1-methyl-1,8-naphthyridin-2-one] | 8.00
6 | [2H]c1ccc2c(N3C[C@H](CN4CC5(C4)OCc4cc(N6C[C@@H](N)[C@H](OC)C6)ccc45)O[C@H](C)C3)ccc(C#N)c2n1 [Example 16, 5-[(2S,6R)-2-[[6-[(3R,4R)-3-amino-4-methoxy-pyrrolidin-1-yl]spiro[1H-isobenzofuran-3,3′-azetidine]-1′-yl]methyl]-6-methyl-morpholin-4-yl]-2-deuterio-quinoline-8-carbonitrile] | 7.72
7 | C[C@@H]1CN(c2ccc(C#N)n3nccc23)C[C@H](CN2CC3(C2)OCc2cc(N4CC(N)C4)ccc23)O1 [Example 19, 4-[(2S,6R)-2-[[6-(3-aminoazetidin-1-yl)spiro[1H-isobenzofuran-3,3′-azetidine]-1′-yl]methyl]-6-methyl-morpholin-4-yl]pyrazolo[1,5-a]pyridine-7-carbonitrile] | 7.72
8 | C[C@@H]1CN(c2ccc(C#N)n3nccc23)C[C@H](CN2CC3(C2)OCc2cc(N4CC(C)(N)C4)ncc23)O1 [Example 25, 4-[(2S,6R)-2-[[6-(3-amino-3-methyl-azetidin-1-yl)spiro[1H-furo[3,4-c]pyridine-3,3′-azetidine]-1′-yl]methyl]-6-methyl-morpholin-4-yl]pyrazolo[1,5-a]pyridine-7-carbonitrile] | 7.64
9 | C[C@@H]1CN(c2ccc(C#N)n3nccc23)C[C@H](CN2CC3(C2)OCc2cc(N4CC(C)(N)C4)cnc23)O1 [Example 26, 4-[(2S,6R)-2-[[3-(3-amino-3-methyl-azetidin-1-yl)spiro[5H-furo[3,4-b]pyridine-7,3′-azetidine]-1′-yl]methyl]-6-methyl-morpholin-4-yl]pyrazolo[1,5-a]pyridine-7-carbonitrile] | 7.62

Continued, values first:

Row | pIC50 | Structure (SMILES)
10 | 8.00 | C[C@@H]1CN(c2ccc(C#N)n3ncc(F)c23)C[C@H](CN2CC3(C2)OCc2cc(N4CC5(CN(C)C5)C4)ccc23)O1 [Example 2, 3-fluoro-4-[(2R,6S)-2-methyl-6-[[6-(6-methyl-2,6-diazaspiro[3.3]heptan-2-yl)spiro[1H-isobenzofuran-3,3′-azetidine]-1′-yl]methyl]morpholin-4-yl]pyrazolo[1,5-a]pyridine-7-carbonitrile]
11 | 8.10 | C[C@@H]1CN(c2ccc(C#N)n3ncc(F)c23)C[C@H](CN2CC3(C2)OCc2cc(N4CCNCC4)ccc23)O1 [Example 6, 3-fluoro-4-[(2R,6S)-2-methyl-6-[(6-piperazin-1-ylspiro[1H-isobenzofuran-3,3′-azetidine]-1′-yl)methyl]morpholin-4-yl]pyrazolo[1,5-a]pyridine-7-carbonitrile]
12 | 8.30 | C[C@@H]1CN(c2ccc(C#N)n3ncc(F)c23)C[C@H](CN2CC3(C2)OCc2cc(N4CC(N)C4)ccc23)O1 [Example 9, 4-[(2S,6R)-2-[[6-(3-aminoazetidin-1-yl)spiro[1H-isobenzofuran-3,3′-azetidine]-1′-yl]methyl]-6-methyl-morpholin-4-yl]-3-fluoro-pyrazolo[1,5-a]pyridine-7-carbonitrile]
13 | 8.10 | C[C@@H]1CN(c2ccc(C#N)n3ncc(F)c23)C[C@H](CN2CC3(C2)OCc2cc(N4C[C@H](N)[C@@H](O)C4)ccc23)O1 [Example 10, 4-[(2S,6R)-2-[[6-[(3S,4S)-3-amino-4-hydroxy-pyrrolidin-1-yl]spiro[1H-isobenzofuran-3,3′-azetidine]-1′-yl]methyl]-6-methyl-morpholin-4-yl]-3-fluoro-pyrazolo[1,5-a]pyridine-7-carbonitrile]
14 | 8.00 | C[C@@H]1CN(c2ccc(C#N)n3ncc(F)c23)C[C@H](CN2CC3(C2)OCc2cc(N4CC5(CNC5)C4)ccc23)O1 [Example 12, 4-[(2S,6R)-2-[[6-(2,6-diazaspiro[3.3]heptan-2-yl)spiro[1H-isobenzofuran-3,3′-azetidine]-1′-yl]methyl]-6-methyl-morpholin-4-yl]-3-fluoro-pyrazolo[1,5-a]pyridine-7-carbonitrile]
15 | 8.15 | [2H]c1ccc2c(N3C[C@H](CN4CC5(C4)OCc4cc(N6CCNCC6)ccc45)O[C@H](C)C3)ccc(C#N)c2n1 [Example 18, 2-deuterio-5-[(2R,6S)-2-methyl-6-[(6-piperazin-1-ylspiro[1H-isobenzofuran-3,3′-azetidine]-1′-yl)methyl]morpholin-4-yl]quinoline-8-carbonitrile]
16 | 8.05 | C[C@@H]1CN(c2ccc(C#N)n3ncc(F)c23)C[C@H](CN2CC3(C2)OCc2cc(N4CC5(CN(C)C5)C4)cnc23)O1 [Example 22, 3-fluoro-4-[(2R,6S)-2-methyl-6-[[3-(6-methyl-2,6-diazaspiro[3.3]heptan-2-yl)spiro[5H-furo[3,4-b]pyridine-7,3′-azetidine]-1′-yl]methyl]morpholin-4-yl]pyrazolo[1,5-a]pyridine-7-carbonitrile]
17 | 8.15 | [2H]c1ccc2c(N3C[C@H](CN4CC5(C4)OCc4cc(N6C[C@H]7NCCO[C@@H]7C6)ncc45)O[C@H](C)C3)ccc(C#N)c2n1 [Example 28, 5-[(2S,6R)-2-[[6-[(4aR,7aR)-3,4,4a,5,7,7a-hexahydro-2H-pyrrolo[3,4-b][1,4]oxazin-6-yl]spiro[1H-furo[3,4-c]pyridine-3,3′-azetidine]-1′-yl]methyl]-6-methyl-morpholin-4-yl]-2-deuterio-quinoline-8-carbonitrile]
